Assays:
IPOHE = test: Example IV: pre-emergence soil-applied weed control, greenhouse; format: in vivo, Ipomoea hederacea Jacq. (ivyleaf morningglory)
Source text: Seeds or nutlets of the desired test plant species were planted in a soil matrix prepared by mixing a loam soil (32 percent silt, 23 percent clay, and 45 percent sand, with a pH of about 6.5 and an organic matter content of about 1.9 percent) and calcareous grit in an 80 to 20 ratio. The soil matrix was contained in plastic pots with a volume of 1 quart and a surface area of 83.6 square centimeters (cm^2).
(§1) Treatments consisted of the benzyl ester of 4-amino-3-chloro-5-fluoro-6-(4-chloro-2-fluoro-3-methoxy-phenyl)pyridine-2-carboxylic acid (compound A) formulated as an SC (suspension concentrate) and various herbicidal components alone and in combination. Forms of compound A were applied on an acid equivalent basis.
Other herbicidal components were applied on an active ingredient basis and included very long chain fatty acid (VLCFA) synthesis-inhibiting and fatty acid/lipid synthesis-inhibiting herbicides alachlor (technical grade material), dimethenamid-P formulated as Outlook®, and S-metolachlor formulated as Dual® II Magnum.
(§2) Treatment requirements were calculated based upon the rates being tested, the concentration of active ingredient or acid equivalent in the formulation, and a 12 mL application volume at a rate of 187 L/ha.
(§3) For treatments comprised of formulated compounds, measured amounts of compounds were placed individually in 25 mL glass vials and diluted in a volume of 1.25% (v/v) Agri-Dex® crop oil concentrate (COC) to obtain 12× stock solutions. […] Application solutions were prepared by adding an appropriate amount of each stock solution (e.g., 1 mL) and diluted to the appropriate final concentrations with the addition of 10 mL of an aqueous mixture of 1.25% (v/v) COC so that the final spray solutions contained 1.25% (v/v) COC.
(§4) For treatments comprised of technical compounds, weighed amounts can be placed individually in 25 mL glass vials and dissolved in a volume of 97:3 (v/v) acetone/DMSO to obtain 12× stock solutions. […] Application solutions can be prepared by adding an appropriate amount of each stock solution (e.g., 1 mL) and diluted to the appropriate final concentrations with the addition of 10 mL of an aqueous mixture of 1.5% (v/v) COC so that the final spray solutions contain 1.25% (v/v) COC. When technical materials are used, the concentrated stock solutions can be added to the spray solutions so that the final acetone and DMSO concentrations of the application solutions are 16.2% and 0.5%, respectively.
For treatments comprised of formulated and technical compounds, weighed amounts of the technical materials were placed individually in 25 mL glass vials and dissolved in a volume of 97:3 (v/v) acetone/DMSO to obtain 12× stock solutions, and measured amounts of the formulated compounds were placed individually in 25 mL glass vials and diluted in a volume of 1.5% (v/v) COC or water to obtain 12× stock solutions. […] Application solutions were prepared by adding an appropriate amount of each stock solution (e.g., 1 mL) and diluted to the appropriate final concentrations with the addition of an appropriate amount of an aqueous mixture of 1.5% (v/v) COC so that the final spray solutions contained 1.25% (v/v) COC. As required, additional water and/or 97:3 (v/v) acetone/DMSO was added to individual application solutions so that the final acetone and DMSO concentrations of the application solutions being compared were 8.1% and 0.25%, respectively.
All stock solutions and applications solutions were visually inspected for compound compatibility prior to application. Spray solutions were applied to the soil with an overhead Mandel track sprayer equipped with a 8002E nozzles calibrated to deliver 187 L/ha over an application area of 0.503 m^2 at a spray height of 18 inches (46 cm) above average pot height. Control pots were sprayed in the same manner with the solvent blank.
The treated and control pots were placed in a greenhouse and top watered as needed. […]

ECHCG = test: Example I: postemergence foliar-applied weed control, greenhouse; format: in vivo, Echinochloa crus-galli (L.) Beauv. (barnyardgrass); details: foliar
Source text: Seeds or nutlets of the desired test plant species were planted in a soil matrix prepared by mixing a loam or sandy loam soil (e.g., 28.6 percent silt, 18.8 percent clay, and 52.6 percent sand, with a pH of about 5.8 and an organic matter content of about 1.8 percent) and calcareous grit in an 80 to 20 ratio. The soil matrix was contained in plastic pots with a volume of 1 quart and a surface area of 83.6 square centimeters (cm^2). When required to ensure good germination and healthy plants, a fungicide treatment and/or other chemical or physical treatment was applied. The plants were grown for 8-22 days in a greenhouse with an approximate 14 hr photoperiod which was maintained at about 29° C. during the day and 26° C. during the night. Nutrients (Peters Excel® 15-5-15 5-Ca 2-Mg and iron chelate) were applied in the irrigation solution as needed and water was added on a regular basis. Supplemental lighting was provided with overhead metal halide 1000-Watt lamps as necessary. The plants were employed for testing when they reached the first through fourth true leaf stage.
as §1, with “acid or esters” for “benzyl ester”, “(Compound A), each” for “(compound A)”, “concentrate),” for “concentrate)”
Other herbicidal components were applied on an active ingredient basis and included very long chain fatty acid (VLCFA) synthesis-inhibiting and fatty acid/lipid synthesis-inhibiting herbicides acetochlor (technical grade material), acetochlor+dichlormid formulated as Topnotch®, pretilachlor (technical grade material), butachlor formulated as Butachlor EC, fentrazamide formulated as Fentrazamide EC, thiobencarb formulated as Bolero® 8EC, cafenstrole formulated as Himeadow® WP or Lapost® Flowable, benfuresate formulated as Full Shot®, dimethenamid-P formulated as Outlook®, indanofan (technical grade material), flufenacet formulated as Define® DF, mefenacet (technical grade material), S-metolachlor formulated as Dual® II Magnum, pethoxamid formulated as Successor® 600, and pyroxasulfone (technical grade material).
as §2
as §3, with “oil concentrated” for “oil concentrate (COC)”, “(v/v) crop oil concentrate” for “(v/v) COC”, “contained 1.25+/−0.05%” for “contained 1.25%”, “(v/v) crop oil concentrate.” for “(v/v) COC.”
as §4, with “97:3 v/v” for “97:3 (v/v)”, “(v/v) crop oil concentrate” for “(v/v) COC”, “(v/v) crop oil concentrate.” for “(v/v) COC.”, “respectively. […]” for “respectively.”

SMILES: CCc1cccc(CC)c1N(COC)C(=O)CCl [Alachlor, 2-chloro-N-(2,6-diethylphenyl)-N-(methoxymethyl)acetamide]
- Visual Weed Control IPOHE Obs (IPOHE; 1240 gai/ha, 27 DAA): 5%
- Visual Weed Control IPOHE Obs (IPOHE; 2480 gai/ha, 27 DAA): 13%

SMILES: CCc1cccc(C)c1N(C(=O)CCl)C(C)COC (stereo not shown) [S-Metolachlor]
- Visual Weed Control (%) - 20 DAA ECHCG Obs (ECHCG; 387.5 gai/ha): 20%
- Visual Weed Control (%) - 20 DAA ECHCG Obs (ECHCG; 775 gai/ha): 55%
- Visual Weed Control IPOHE Obs (IPOHE; 387.5 gai/ha, 28 DAA): 25%
- Visual Weed Control IPOHE Obs (IPOHE; 775 gai/ha, 28 DAA): 0%
- Visual Weed Control IPOHE Obs (IPOHE; 1550 gai/ha, 28 DAA): 33%

Source: US20130310256A1, “HERBICIDAL COMPOSITIONS COMPRISING 4-AMINO-3-CHLORO-5-FLUORO-6-(4-CHLORO-2-FLUORO-3-METHOXYPHENYL) PYRIDINE-2-CARBOXYLIC ACID OR A DERIVATIVE THEREOF AND VLCFA AND LIPID SYNTHESIS INHIBITING HERBICIDES” (DOW AGROSCIENCES LLC, priority 2008, published 2013)
